Patent US20260183393A1, “IMMUNOSUPPRESSANT-RESISTANT MODIFIED ALLOGENEIC MODIFIED IMMUNE CELLS AND METHODS FOR USE THEREOF” (Beam Therapeutics Inc., priority 2023, published 2026)

Key:
NK cells = experiment: NK cell-mediated lysis of HLA class-I negative T cells with immunosuppressants; assay type: cell-based, human; details: 10 μg/mL; 4:1 effector-to-target ratio; 48 hours of co-culture
Description: The rightmost plots represent the ratio of HLA class-I negative (target cells) and positive T cells in the absence of any NK cells (effector cells) (i.e., a culture with an effector-to-target cell ratio (E:T) of 0:1 because the culture contained no effector cells and only the target cells). Primary human NK cells were activated in vitro with IL-2 and IL-15 cytokines for 72 hours. The activated NK cells were then cultured for 24 hours in the presence of rapamycin (10 μg/mL), tacrolimus (10 μg/mL), or a dimethylsulfoxide (DMSO) control. After the 24 hours, the NK cells were then co-cultured at a 4:1 effector-to-target ratio with an equal mixture of unedited HLA class-I positive (off-target cells) or beta-2-microglobulin (B2M) knock-out (HLA class-I deficient) T cells (target cells) in the presence or absence if the immunosuppressant rapamycin or tacrolimus. T cells co-cultured in the absence of NK cells (0:1 E:T ratio) were used as control. Following 48 hours of co-culture, the frequency of HLA class-I negative and positive T cells was assessed using flow cytometry by immunostaining for pan HLA class-I (ABC). The numbers within each plot indicate the percent of total cells counted falling within the indicated region, where the left regions correspond to HLA class-I negative cells and the right regions correspond to HLA class-I positive cells. […]

[1] = system: T cell-driven rejection of allogeneic HLA-I^+ CAR-T cells; experiment: HIS mouse-driven allorejection model, 4CAR-T cell persistence; assay type: in vivo, human immune system (HIS) mice; details: for rejection of peripheral allogeneic HLA^+ CAR-T cells: RPM 1 mg kg-1 or TAC 10 mg kg-1 daily intraperitoneal for 2 weeks, 1- and 2-weeks post-treatment initiation
Description: Female (aged 6-8 weeks) NOD.Cg-Prkdc^scidIL2rg^tm1Wjl/SzJ (NSG) mice (Jackson Laboratory) were maintained in a pathogen-free facility. Briefly, to generate BLT humanized mice, NSG mice were anesthetized and whole-body irradiated (2 Gy), and then implanted with 1 mm^3 fragments of human fetal liver and thymus tissue beneath the murine kidney capsule. Following, 1×10^5 autologous fetal liver-derived CD34^+ hematopoietic stem cells (HSCs) were intravenously injected within 6 hours of transplantation. Beam Therapeutics commercially obtained female NOD-Prkdc^em26Ca52 IL2rg^em26CD22/NjuCrl (NCG) CD34^+ humanized (huNCG) mice from Charles River and female (aged 6-8 weeks) NSG-Tg(IL15)1Sz/SzJ (NSG-IL15tg) mice from Jackson Laboratory. Mice were maintained in a pathogen-free facility at CRADL. Briefly, huCD34-NCG mice were generated from female (aged 4-6 weeks) NCG mice that were myeloablated and then intravenously infused with human umbilical cord blood-derived CD34^+ stem cells from a qualified source. Humanized NK (huNK) mice were generated by supplementing the water of NSG-IL-15tg with Baytril (Bayer) for 1 week followed by whole-body irradiation (2 Gy). 5×10^6 primary human CD56^+ NK cells were then intravenously injected 24 hours later and permitted to engraft. At both facilities, mice were housed in microisolator cages and fed autoclaved food and water. Animal rooms were maintained at 72±2° F., 30-70% relative humidity and were on a 12:12 h light/dark cycle. Human reconstitution was assessed from 12-17 weeks post-transplant in BLT and huNCG mice, and 2-3 weeks post-transplant in huNK mice. […]
For the studies described in FIGS. 16A to 16J, BLT mice were used Cohort #2 (n=12) and Cohort #5 (n=13), and huNCG mice were used in Cohort #1 (n=10), Cohort #3 (n=12) and Cohort #4 (n=10). […] Persistence of 4CAR-T cells was monitored at 1-day post-T cell infusion and weekly thereafter via blood draws from the retro-orbital sinus or submandibular vein. […]

Compound | NK cell-mediated lysis of HLA class-I negative T cells (NK cells) | rejection of peripheral allogeneic HLA^+ CAR-T cells [1] | cumulative allogeneic HLA^+ CAR-T cell persistence ([1]; during the treatment window and post-treatment withdrawal, AUC)
C=CC[C@@H]1/C=C(\C)C[C@H](C)C[C@H](OC)[C@H]2O[C@@](O)(C(=O)C(=O)N3CCCC[C@H]3C(=O)O[C@H](/C(C)=C/[C@@H]3CC[C@@H](O)[C@H](OC)C3)[C@H](C)[C@@H](O)CC1=O)[C@H](C)C[C@@H]2OC [tacrolimus, Tacrolimus] | attenuated | significantly mitigated rejection | improved cumulative allogeneic HLA^+ CAR-T cell persistence
CO[C@H]1C[C@@H]2CC[C@@H](C)[C@@](O)(O2)C(=O)C(=O)N2CCCC[C@H]2C(=O)O[C@H]([C@H](C)C[C@@H]2CC[C@@H](O)[C@H](OC)C2)CC(=O)[C@H](C)/C=C(\C)[C@@H](O)[C@@H](OC)C(=O)[C@H](C)C[C@H](C)/C=C/C=C/C=C/1C [rapamycin, Rapamycin] | attenuated | significantly mitigated rejection | –
